Results reported in patent US4229528A, “Fluorescence method for enzyme analysis which couples aromatic amines with aromatic aldehydes” (priority 1978, dated 1980).

Tested on: arylamidase activity
Test: Inhibitory effect of 5NSA on arylamidase activity (initial hydrolytic rates with and without added 5NSA)
Assay type: biochemical
Source text: At 10 mmol/liter, 50% inhibition of all enzyme activities occurs. Interfering side reactions with 5NSA may occur. The compound reacts with both aliphatic and aromatic amine groups to form Schiff-Base complexes. Particularly susceptible are proteins containing lysine and glutamine. […] Cell proteins react at higher concentrations, i.e., above 1 mmol/liter of 5NSA, to form a blue-green fluorescence, which may account for as much as 15% of the cellular fluorescence at 530 nm. Use of appropriate filters to block out green fluorescence will block out the nonspecific cell protein reaction with 5NSA.

[1] = 1 mmol/liter 5NSA, initial hydrolytic rate with vs without 5NSA

## O=Cc1cc([N+](=O)[O-])ccc1O [5NSA, 5-nitrosalicylaldehyde]
[1]
  Effect on Carbobenzoxy-arg-arg-4M2NA hydrolysis: not affected significantly
  Effect on Lys-Ala-4M2NA activity: not affected significantly
10 mmol/liter 5NSA
  inhibition of all enzyme activities: 50%
